Assay type in all cases: cell-based
Experiment [1] concerns the target T1, Glucagon-like peptide 2 receptor (Homo sapiens, UniProt O95838).
T1 sequence (O95838 whole entry): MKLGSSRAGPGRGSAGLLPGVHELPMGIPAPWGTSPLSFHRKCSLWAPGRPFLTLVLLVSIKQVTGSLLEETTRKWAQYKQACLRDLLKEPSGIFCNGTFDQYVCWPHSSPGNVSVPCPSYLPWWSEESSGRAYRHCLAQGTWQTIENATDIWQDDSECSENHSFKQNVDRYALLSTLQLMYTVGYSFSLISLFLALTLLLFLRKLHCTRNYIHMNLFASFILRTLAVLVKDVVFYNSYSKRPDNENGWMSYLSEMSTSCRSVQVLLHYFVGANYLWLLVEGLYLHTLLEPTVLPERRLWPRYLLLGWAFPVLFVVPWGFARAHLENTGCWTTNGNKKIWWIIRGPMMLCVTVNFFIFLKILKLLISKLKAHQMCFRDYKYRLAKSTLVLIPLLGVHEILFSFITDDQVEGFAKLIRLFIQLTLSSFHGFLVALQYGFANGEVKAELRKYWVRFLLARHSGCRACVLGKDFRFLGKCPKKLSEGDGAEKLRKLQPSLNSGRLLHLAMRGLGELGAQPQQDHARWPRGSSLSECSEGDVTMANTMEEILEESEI
Nature of the experiment: Agonist activity at human GLP2R expressed in HEK293 cells after 5 hrs by luciferase reporter gene assay.

For experiment [2], the target named is T2, Glucagon-like peptide 2 receptor (Homo sapiens) (UniProt O95838).
T2 sequence (whole entry): T1 sequence (O95838 whole entry)
Nature of the experiment: Potency index, ratio of compound EC50 to compound 2 EC50 for human GLP2R expressed in HEK293 cells.

Experiment [3] addresses Glucagon-like peptide 1 receptor (Homo sapiens, UniProt P43220). Nature of the experiment: Agonist activity at human GLP1R expressed in HEK293 cells after 5 hrs by luciferase reporter gene assay. On the technique in general: Reporter assays use an easily measured gene product as a stand-in for the process of interest.
The target of experiment [4] is Glucagon receptor (Homo sapiens) (UniProt P47871). Nature of the experiment: Agonist activity at human GCGR expressed in HEK293 cells after 5 hrs by luciferase reporter gene assay.
Glucagon receptor (Homo sapiens), sequence (P47871 whole entry): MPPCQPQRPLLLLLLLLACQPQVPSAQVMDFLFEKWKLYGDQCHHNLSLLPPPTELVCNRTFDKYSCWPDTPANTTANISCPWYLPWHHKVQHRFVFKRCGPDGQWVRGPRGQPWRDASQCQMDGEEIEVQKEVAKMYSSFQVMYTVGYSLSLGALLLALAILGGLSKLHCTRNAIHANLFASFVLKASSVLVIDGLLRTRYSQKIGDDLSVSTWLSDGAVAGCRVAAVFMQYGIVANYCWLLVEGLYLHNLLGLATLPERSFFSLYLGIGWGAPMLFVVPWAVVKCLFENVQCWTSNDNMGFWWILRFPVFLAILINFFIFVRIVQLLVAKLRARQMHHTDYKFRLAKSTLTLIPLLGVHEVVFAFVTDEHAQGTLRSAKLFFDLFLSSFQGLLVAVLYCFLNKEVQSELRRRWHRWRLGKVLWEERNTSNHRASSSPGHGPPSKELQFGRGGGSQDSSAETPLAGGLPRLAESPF
Another experiment relates to HEK293. The experiment is described as follows: Selectivity ratio of EC50 for human GLP1R expressed in HEK293 cells to EC50 for human GLP2R expressed in HEK293.

Active and inactive are the calls of the source. The rule behind the calls is not given here. Non-standard residues stand in square brackets, D forms with d. Residues, ends and D or L forms follow the SMILES beside them. Nle = CCCC[C@H](N)C(=O)O

Glucagon-like peptide 1 receptor, sequence (P43220 whole entry): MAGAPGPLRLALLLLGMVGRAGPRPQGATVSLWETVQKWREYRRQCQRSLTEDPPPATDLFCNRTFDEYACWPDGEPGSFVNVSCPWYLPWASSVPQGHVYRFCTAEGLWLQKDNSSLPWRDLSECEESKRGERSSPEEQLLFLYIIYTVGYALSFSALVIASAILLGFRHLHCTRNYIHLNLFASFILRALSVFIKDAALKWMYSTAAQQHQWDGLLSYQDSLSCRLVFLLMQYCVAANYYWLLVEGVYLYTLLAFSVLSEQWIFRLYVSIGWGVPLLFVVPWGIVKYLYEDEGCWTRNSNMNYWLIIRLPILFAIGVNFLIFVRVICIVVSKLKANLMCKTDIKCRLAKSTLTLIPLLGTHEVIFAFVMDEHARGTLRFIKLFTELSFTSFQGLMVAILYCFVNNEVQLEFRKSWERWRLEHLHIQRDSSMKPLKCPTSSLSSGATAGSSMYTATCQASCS

Broadly, the EC50 is the concentration that produces a half-maximal response. A low value points to higher potency in that assay. For `CCCCC(NC(=O)[C@H](CCC(=O)O)NC(=O)[C@H](CC(=O)O)NC(=O)[C@H](CO)NC(=O)[C@H](Cc1ccccc1)NC(=O)[C@H](CO)NC(=O)CNC(=O)[C@H](CC(=O)O)NC(=O)CNC(=O)[C@@H](N)Cc1cnc[nH]1)C(=O)N[C@@H](CC(N)=O)C(=O)N[C@H](C(=O)N[C@H](C(=O)N[C@@H](CC(C)C)C(=O)N[C@@H](CC(=O)O)C(=O)N[C@@H](CC(N)=O)C(=O)N[C@@H](CC(C)C)C(=O)N[C@@H](C)C(=O)N[C@@H](C)C(=O)N[C@@H](CCCNC(=N)N)C(=O)N[C@@H](CC(=O)O)C(=O)N[C@@H](Cc1ccccc1)C(=O)N[C@H](C(=O)N[C@H](CC(N)=O)C(=O)N[C@@H](Cc1c[nH]c2ccccc12)C(=O)N[C@@H](CC(C)C)C(=O)N[C@H](C(=O)N[C@@H](CCC(N)=O)C(=O)N[C@H](C(=O)N[C@@H](CCCCN)C(N)=O)[C@@H](C)O)[C@@H](C)CC)[C@@H](C)CC)[C@@H](C)CC)[C@@H](C)O` (stereo not given in full), the results for the concentration giving a half-maximal response (EC50) in experiment [1] and in experiment [3] were 0.43 nM and above 1000 nM, respectively. Moreover, the Ratio EC50 in experiment [2] was 2; in the experiment on HEK293, above 2300. For the same compound, the result in experiment [4] was inactive.

Consider `CCCC[C@H](NC(=O)[C@H](CCC(=O)O)NC(=O)[C@H](CC(=O)O)NC(=O)[C@H](CO)NC(=O)[C@H](Cc1ccccc1)NC(=O)[C@H](CO)NC(=O)[C@@H](C)NC(=O)[C@H](CC(=O)O)NC(=O)CNC(=O)[C@@H](N)Cc1cnc[nH]1)C(=O)N[C@@H](CC(N)=O)C(=O)N[C@H](C(=O)N[C@H](C(=O)N[C@@H](CC(C)C)C(=O)N[C@@H](CC(=O)O)C(=O)N[C@@H](CC(N)=O)C(=O)N[C@@H](CC(C)C)C(=O)N[C@@H](C)C(=O)N[C@@H](C)C(=O)N[C@@H](CCCNC(=N)N)C(=O)N[C@@H](CC(=O)O)C(=O)N[C@@H](Cc1ccccc1)C(=O)N[C@H](C(=O)N[C@@H](CC(N)=O)C(=O)N[C@@H](Cc1c[nH]c2ccccc12)C(=O)N[C@@H](CC(C)C)C(=O)N[C@H](C(=O)N[C@@H](CCC(N)=O)C(=O)N[C@H](C(=O)N[C@@H](CCCCN)C(N)=O)[C@@H](C)O)[C@@H](C)CC)[C@@H](C)CC)[C@@H](C)CC)[C@@H](C)O` (H-HGD[dA]SFSDE[Nle]NTILDNLAARDFINWLIQTK-NH2), for which the EC50 in experiment [1] is 0.2 nM; in experiment [3] it was above 1000 nM. Also, the Ratio EC50 is 0.91 in experiment [2] and above 5000 in the experiment on HEK293. The outcome in experiment [4] was inactive.

As to `CCCCC(NC(=O)[C@H](CCC(=O)O)NC(=O)[C@H](CC(=O)O)NC(=O)[C@H](CO)NC(=O)[C@H](Cc1ccccc1)NC(=O)[C@H](CO)NC(=O)CNC(=O)[C@H](CC(=O)O)NC(=O)CNC(=O)[C@@H](N)Cc1cnc[nH]1)C(=O)N[C@@H](CC(N)=O)C(=O)N[C@H](C(=O)N[C@H](C(=O)N[C@@H](CC(C)C)C(=O)N[C@@H](CC(=O)O)C(=O)N[C@@H](CC(N)=O)C(=O)N[C@@H](CC(C)C)C(=O)N[C@@H](C)C(=O)N[C@@H](C)C(=O)N[C@H](CCCNC(=N)N)C(=O)N[C@@H](CC(=O)O)C(=O)N[C@@H](Cc1ccccc1)C(=O)N[C@H](C(=O)N[C@@H](CC(N)=O)C(=O)N[C@@H](Cc1c[nH]c2ccccc12)C(=O)N[C@@H](CC(C)C)C(=O)N[C@H](C(=O)N[C@@H](CCC(N)=O)C(=O)N[C@H](C(=O)N[C@@H](CCCCN)C(N)=O)[C@@H](C)O)[C@@H](C)CC)[C@@H](C)CC)[C@@H](C)CC)[C@@H](C)O` (stereo not given in full), the EC50 in experiment [1] was 2.2 nM; in experiment [3], above 1000 nM. Moreover, the Ratio EC50 in experiment [2] was 10; in the experiment on HEK293 it was above 450. Also, the outcome in experiment [4] was inactive.

Turning to `CCCCC(NC(=O)[C@H](CCC(=O)O)NC(=O)[C@H](CC(=O)O)NC(=O)[C@H](CO)NC(=O)[C@H](Cc1ccccc1)NC(=O)[C@H](CO)NC(=O)CNC(=O)[C@H](CC(=O)O)NC(=O)CNC(=O)[C@@H](N)Cc1cnc[nH]1)C(=O)N[C@@H](CC(N)=O)C(=O)N[C@H](C(=O)N[C@H](C(=O)N[C@@H](CC(C)C)C(=O)N[C@@H](CC(=O)O)C(=O)N[C@@H](CC(N)=O)C(=O)N[C@@H](CC(C)C)C(=O)N[C@@H](C)C(=O)N[C@H](C)C(=O)N[C@@H](CCCNC(=N)N)C(=O)N[C@@H](CC(=O)O)C(=O)N[C@@H](Cc1ccccc1)C(=O)N[C@H](C(=O)N[C@@H](CC(N)=O)C(=O)N[C@@H](Cc1c[nH]c2ccccc12)C(=O)N[C@@H](CC(C)C)C(=O)N[C@H](C(=O)N[C@@H](CCC(N)=O)C(=O)N[C@H](C(=O)N[C@@H](CCCCN)C(N)=O)[C@@H](C)O)[C@@H](C)CC)[C@@H](C)CC)[C@@H](C)CC)[C@@H](C)O` (stereo not given in full), the EC50 in experiment [1] is 14 nM; in experiment [3], above 1000 nM. Also, the Ratio EC50 was 64 in experiment [2] and above 71 in the experiment with HEK293. Further, the result in experiment [4] was inactive.

With `CCCCC(NC(=O)[C@H](CCC(=O)O)NC(=O)[C@H](CC(=O)O)NC(=O)[C@H](CO)NC(=O)[C@H](Cc1ccccc1)NC(=O)[C@@H](CO)NC(=O)CNC(=O)[C@H](CC(=O)O)NC(=O)CNC(=O)[C@@H](N)Cc1cnc[nH]1)C(=O)N[C@@H](CC(N)=O)C(=O)N[C@H](C(=O)N[C@H](C(=O)N[C@@H](CC(C)C)C(=O)N[C@@H](CC(=O)O)C(=O)N[C@@H](CC(N)=O)C(=O)N[C@@H](CC(C)C)C(=O)N[C@@H](C)C(=O)N[C@@H](C)C(=O)N[C@@H](CCCNC(=N)N)C(=O)N[C@@H](CC(=O)O)C(=O)N[C@@H](Cc1ccccc1)C(=O)N[C@H](C(=O)N[C@@H](CC(N)=O)C(=O)N[C@@H](Cc1c[nH]c2ccccc12)C(=O)N[C@@H](CC(C)C)C(=O)N[C@H](C(=O)N[C@@H](CCC(N)=O)C(=O)N[C@H](C(=O)N[C@@H](CCCCN)C(N)=O)[C@@H](C)O)[C@@H](C)CC)[C@@H](C)CC)[C@@H](C)CC)[C@@H](C)O` (stereo not given in full), the concentration for a half-maximal effect (EC50) was 8.1 nM in experiment [1] and above 1000 nM in experiment [3]. Moreover, the Ratio EC50 in experiment [2] is 37; in the experiment on HEK293, above 120. The outcome in experiment [4] was inactive.

As to `CCCCC(NC(=O)[C@H](CCC(=O)O)NC(=O)[C@H](CC(=O)O)NC(=O)[C@@H](CO)NC(=O)[C@H](Cc1ccccc1)NC(=O)[C@H](CO)NC(=O)CNC(=O)[C@H](CC(=O)O)NC(=O)CNC(=O)[C@@H](N)Cc1cnc[nH]1)C(=O)N[C@@H](CC(N)=O)C(=O)N[C@H](C(=O)N[C@H](C(=O)N[C@@H](CC(C)C)C(=O)N[C@@H](CC(=O)O)C(=O)N[C@@H](CC(N)=O)C(=O)N[C@@H](CC(C)C)C(=O)N[C@@H](C)C(=O)N[C@@H](C)C(=O)N[C@@H](CCCNC(=N)N)C(=O)N[C@@H](CC(=O)O)C(=O)N[C@@H](Cc1ccccc1)C(=O)N[C@H](C(=O)N[C@@H](CC(N)=O)C(=O)N[C@@H](Cc1c[nH]c2ccccc12)C(=O)N[C@@H](CC(C)C)C(=O)N[C@H](C(=O)N[C@@H](CCC(N)=O)C(=O)N[C@H](C(=O)N[C@@H](CCCCN)C(N)=O)[C@@H](C)O)[C@@H](C)CC)[C@@H](C)CC)[C@@H](C)CC)[C@@H](C)O` (stereo not given in full), the figures for the EC50 in experiment [1] and in experiment [3] were 0.19 nM and above 1000 nM, respectively. Moreover, the Ratio EC50 in experiment [2] was 0.86; in the experiment on HEK293 it was above 5200. In addition, the result in experiment [4] was inactive.

As for `CCCCC(NC(=O)[C@H](CCC(=O)O)NC(=O)[C@H](CC(=O)O)NC(=O)[C@H](CO)NC(=O)[C@H](Cc1ccccc1)NC(=O)[C@H](CO)NC(=O)CNC(=O)[C@H](CC(=O)O)NC(=O)CNC(=O)[C@@H](N)Cc1cnc[nH]1)C(=O)N[C@@H](CC(N)=O)C(=O)N[C@H](C(=O)N[C@@H](C(=O)N[C@@H](CC(C)C)C(=O)N[C@@H](CC(=O)O)C(=O)N[C@@H](CC(N)=O)C(=O)N[C@@H](CC(C)C)C(=O)N[C@@H](C)C(=O)N[C@@H](C)C(=O)N[C@@H](CCCNC(=N)N)C(=O)N[C@@H](CC(=O)O)C(=O)N[C@@H](Cc1ccccc1)C(=O)N[C@H](C(=O)N[C@@H](CC(N)=O)C(=O)N[C@@H](Cc1c[nH]c2ccccc12)C(=O)N[C@@H](CC(C)C)C(=O)N[C@H](C(=O)N[C@@H](CCC(N)=O)C(=O)N[C@H](C(=O)N[C@@H](CCCCN)C(N)=O)[C@@H](C)O)[C@@H](C)CC)[C@@H](C)CC)[C@H](C)CC)[C@@H](C)O` (stereo not given in full), the results for the 50% effective concentration (EC50) in experiment [1] and in experiment [3] were 0.35 nM and above 1000 nM, respectively. The Ratio EC50 in experiment [2] is 1.6; in the experiment with HEK293, above 2800. The result in experiment [4] was inactive.

Consider `CCCCC(NC(=O)[C@H](CCC(=O)O)NC(=O)[C@H](CC(=O)O)NC(=O)[C@H](CO)NC(=O)[C@H](Cc1ccccc1)NC(=O)[C@H](CO)NC(=O)CNC(=O)[C@H](CC(=O)O)NC(=O)CNC(=O)[C@@H](N)Cc1cnc[nH]1)C(=O)N[C@@H](CC(N)=O)C(=O)N[C@H](C(=O)N[C@H](C(=O)N[C@@H](CC(C)C)C(=O)N[C@@H](CC(=O)O)C(=O)N[C@@H](CC(N)=O)C(=O)N[C@@H](CC(C)C)C(=O)N[C@H](C)C(=O)N[C@@H](C)C(=O)N[C@@H](CCCNC(=N)N)C(=O)N[C@@H](CC(=O)O)C(=O)N[C@@H](Cc1ccccc1)C(=O)N[C@H](C(=O)N[C@@H](CC(N)=O)C(=O)N[C@@H](Cc1c[nH]c2ccccc12)C(=O)N[C@@H](CC(C)C)C(=O)N[C@H](C(=O)N[C@@H](CCC(N)=O)C(=O)N[C@H](C(=O)N[C@@H](CCCCN)C(N)=O)[C@@H](C)O)[C@@H](C)CC)[C@@H](C)CC)[C@@H](C)CC)[C@@H](C)O` (stereo not given in full), for which the concentration for a half-maximal effect (EC50) in experiment [1] was 4.5 nM; in experiment [3], above 1000 nM. For the same compound, the results for the Ratio EC50 (in experiment [2]; in the experiment with HEK293) were 20 and above 220, respectively. For the same compound, in experiment [4], the result was inactive.

Source of the values: ChEMBL document CHEMBL3822442, “Synthesis and Pharmacological Characterization of Novel Glucagon-like Peptide-2 (GLP-2) Analogues with Low Systemic Clearance” (J Med Chem, 2016).
